Values of other authors in PubChem BioAssay AID1259409 (Chemical Carcinogenesis Research Information System (CCRIS), 2018).

System: rodent chemically induced tumor inhibition, incidence and multiplicity
Assay: CCRIS tumor inhibitor studies

## O=C1C[C@@H](c2ccc(O)cc2)Oc2cc(O)cc(O)c21
Carcinogen: 7,12-DIMETHYLBENZ[A]ANTHRACENE, 57-97-6, Dose [Inhibitor]: 100 UG IN 0.2 ML ACETONE ONCE 5 MIN BEFORE CARCINOGEN TREATMENT (STUDY DURATION: 31 WK), Route [Inhibitor]: DERMAL, Species: MOUSE, Strain/Sex: CD-1/FEMALE, Target Tissue: Type of Lesion: SKIN: PAPILLOMA, Dose [Carcinogen]: 10 NMOL IN 0.2 ML ACETONE ONCE, Promoter: 12-O-TETRADECANOYLPHORBOL-13-ACETATE, 16561-29-8
  tumour outcome (control, treated, inhibition, significance): 87%, 94%, -8%, not calculated
Carcinogen: N-Methyl-N'-nitro-N-nitrosoguanidine (70-25-7) and saturated sodium chloride (7647-14-5), Dose [Inhibitor]: 200 mg/kg bw dissolved in corn oil for 20 wk from first dose of MNNG + NaCl and from the 6th wk of MNNG + NaCl induction, Route [Inhibitor]: Gavage, Species: Rat, Strain/Sex: Wistar/Male, Target Tissue: Type of Lesion: Stomach, Dose [Carcinogen]: 200 mg/kg at days 0 and 14 (MNNG) and 1 ml/rat 3 days for 4 wk (NaCl); study duration 20 wk), Promoter: None
  outcome: 0 (0) in negative controls; 6 (100) in positive controls; 0 (0) simultaneous tre

## CC1=C[C@H]2[C@@]3(O)[C@H](C)C[C@]4(OC(=O)Cc5ccccc5)C([C@@H]3C=C(CO)C[C@]2(O)C1=O)C4(C)C (stereo partly specified)
Carcinogen: 7,12-DIMETHYLBENZ[A]ANTHRACENE, 57-97-6, Dose [Inhibitor]: 0, 2.14 NMOL 15 D POST INITIATION DOSE FOLLOWED BY 2.14 NMOL 2/WK DURING WK 3-22 APPLIED 15 MIN PRIOR TO EACH PROMOTION, Route [Inhibitor]: DERMAL, Species: MOUSE, Strain/Sex: CD-1/FEMALE, Target Tissue: Type of Lesion: SKIN: PAPILLOMA, Dose [Carcinogen]: 20 NMOL IN 200 µL ACETONE ONCE
  tumour outcome (control, treated, inhibition, significance): 100%, 82%, 18%, not calculated
Carcinogen: 7,12-DIMETHYLBENZ[A]ANTHRACENE, 57-97-6, Dose [Inhibitor]: 0, 2.14 NMOL 15 D POST INITIATION DOSE FOLLOWED BY 2.14 PMOL 2/WK DURING WK 3-22 APPLIED 15 MIN PRIOR TO EACH PROMOTION, Route [Inhibitor]: DERMAL, Species: MOUSE, Strain/Sex: CD-1/FEMALE, Target Tissue: Type of Lesion: SKIN: PAPILLOMA, Dose [Carcinogen]: 20 NMOL IN 200 µL ACETONE ONCE
  tumour outcome (control, treated, inhibition, significance): 100%, 97%, 3%, not calculated
Carcinogen: 7,12-DIMETHYLBENZ[A]ANTHRACENE, 57-97-6, Dose [Inhibitor]: 0, 2.14 NMOL 15 D POST INITIATION DOSE FOLLOWED BY 21.4 NMOL 2/WK DURING WK 3-22 APPLIED 15 MIN PRIOR TO EACH PROMOTION, Route [Inhibitor]: DERMAL, Species: MOUSE, Strain/Sex: CD-1/FEMALE, Target Tissue: Type of Lesion: SKIN: PAPILLOMA, Dose [Carcinogen]: 20 NMOL IN 200 µL ACETONE ONCE
  tumour outcome (control, treated, inhibition, significance): 100%, 53%, 47%, not calculated
Carcinogen: 7,12-DIMETHYLBENZ[A]ANTHRACENE, 57-97-6, Dose [Inhibitor]: 0, 2.14 NMOL 15 D POST INITIATION DOSE FOLLOWED BY 21.4 PMOL 2/WK DURING WK 3-22 APPLIED 15 MIN PRIOR TO EACH PROMOTION, Route [Inhibitor]: DERMAL, Species: MOUSE, Strain/Sex: CD-1/FEMALE, Target Tissue: Type of Lesion: SKIN: PAPILLOMA, Dose [Carcinogen]: 20 NMOL IN 200 µL ACETONE ONCE
  tumour outcome (control, treated, inhibition, significance): 100%, 100%, 0%, not significant
Carcinogen: 7,12-DIMETHYLBENZ[A]ANTHRACENE, 57-97-6, Dose [Inhibitor]: 0, 2.14 NMOL 15 D POST INITIATION DOSE FOLLOWED BY 214 PMOL 2/WK DURING WK 3-22 APPLIED 15 MIN PRIOR TO EACH PROMOTION D, Route [Inhibitor]: DERMAL, Species: MOUSE, Strain/Sex: CD-1/FEMALE, Target Tissue: Type of Lesion: SKIN: PAPILLOMA, Dose [Carcinogen]: 20 NMOL IN 200 µL ACETONE ONCE
  tumour outcome (control, treated, inhibition, significance): 100%, 95%, 5%, not calculated
Carcinogen: 7,12-DIMETHYLBENZ[A]ANTHRACENE, 57-97-6, Dose [Inhibitor]: 2.14 NMOL BEGINNING 15 D POST INITIATION DOSE AND EVERY THURS. AS WELL AS 21.4 NMOL 15 MIN PRIOR TO EACH PROMOTION DOSE, Route [Inhibitor]: DERMAL, Species: MOUSE, Strain/Sex: CD-1/FEMALE, Target Tissue: Type of Lesion: SKIN: PAPILLOMA, Dose [Carcinogen]: 20 NMOL IN 200 µL ACETONE ONCE
  tumour outcome (control, treated, inhibition, significance): 100%, 65%, 35%, not calculated
Carcinogen: 7,12-DIMETHYLBENZ[A]ANTHRACENE, 57-97-6, Dose [Inhibitor]: 2.14 NMOL BEGINNING 15 D POST INITIATION DOSE AND EVERY WED. AS WELL AS 21.4 NMOL 15 MIN PRIOR TO PROMOTION DOSE ON FRI., Route [Inhibitor]: DERMAL, Species: MOUSE, Strain/Sex: CD-1/FEMALE, Target Tissue: Type of Lesion: SKIN: PAPILLOMA, Dose [Carcinogen]: 20 NMOL IN 200 µL ACETONE ONCE
  tumour outcome (control, treated, inhibition, significance): 98%, 50%, 49%, not calculated

## C[C@H]1O[C@@H](O[C@H]2[C@@H](O)C[C@H](O[C@H]3[C@@H](O)C[C@H](O[C@H]4CC[C@@]5(C)[C@H](CC[C@@H]6[C@@H]5CC[C@]5(C)[C@@H](C7=CC(=O)OC7)CC[C@]65O)C4)O[C@@H]3C)O[C@@H]2C)C[C@H](O)[C@@H]1O
Carcinogen: 4-NITROQUINOLINE-N-OXIDE, 56-57-5, Dose [Inhibitor]: 0, 0.25 MG/100 ML IN DRINKING WATER FOR 20 WK BEGINNING 5 WK POST CARCINOGEN DOSE (STUDY DURATION: 25 WK), Route [Inhibitor]: ORAL, Species: MOUSE, Strain/Sex: ICR/FEMALE, Target Tissue: Type of Lesion: LUNG: TUMOR, Dose [Carcinogen]: 0.3 MG ONCE, Promoter: GLYCEROL, 56-81-5
  tumour outcome (control, treated, inhibition, significance): 100%, 53%, 47%, not calculated
Carcinogen: 7,12-DIMETHYLBENZ[A]ANTHRACENE, 57-97-6, Dose [Inhibitor]: 0, 85 NMOL IN ACETONE 2/WK 1 HR PRIOR TO EACH PROMOTER DOSE FOR 20 WK (STUDY DURATION: 21 WK), Route [Inhibitor]: DERMAL, Species: MOUSE, Strain/Sex: ICR/FEMALE, Target Tissue: Type of Lesion: SKIN: PAPILLOMA, Dose [Carcinogen]: 100 UG IN ACETONE ONCE, Promoter: 12-O-TETRADECANOYLPHORBOL-13-ACETATE, 16561-29-8
  tumour outcome (control, treated, inhibition, significance): 100%, 80%, 20%, not calculated

## O=c1ccc2ccccc2o1
Carcinogen: 7,12-DIMETHYLBENZ(A)ANTHRACENE, 57-97-6, Dose [Inhibitor]: 0.034 MMOL/G IN DIET BEGINNING 1 D PRIOR TO CARCINOGEN DOSE AND CONTINUING FOR 8 D (STUDY DURATION: 23 WK), Route [Inhibitor]: ORAL, Species: RAT, Strain/Sex: SPRAGUE-DAWLEY/FEMALE, Target Tissue: Type of Lesion: MAMMARY GLAND: TUMOR, Dose [Carcinogen]: 12 MG IN 1.0 ML OLIVE OIL ONCE, Promoter: NONE USED
  tumour outcome (control, treated, inhibition, significance): 86%, 31%, 64%, p<0.01
Carcinogen: 7,12-DIMETHYLBENZ[A]ANTHRACENE, 57-97-6, Dose [Inhibitor]: 0.068 MMOL/G IN DIET BEGINNING 7 D PRIOR TO CARCINOGEN DOSE AND CONTINUING FOR 8 D (STUDY DURATION: 23 WK), Route [Inhibitor]: ORAL, Species: RAT, Strain/Sex: SPRAGUE-DAWLEY/FEMALE, Target Tissue: Type of Lesion: MAMMARY GLAND: TUMOR, Dose [Carcinogen]: 12 MG IN 1.0 ML OLIVE OIL, Promoter: NONE USED
  tumour outcome (control, treated, inhibition, significance): 86%, 14%, 84%, p<0.01,
Carcinogen: BENZO[A]PYRENE, 50-32-8, Dose [Inhibitor]: 0.068 MMOL/G IN DIET FOR 5 WK BEGINNING 1 WK PRIOR TO CARCINOGEN TREATMENT (STUDY DURATION: 21 WK), Route [Inhibitor]: ORAL, Species: MOUSE, Strain/Sex: ICR/FEMALE, Target Tissue: Type of Lesion: FORESTOMACH: TUMOR, Dose [Carcinogen]: 1 MG IN 0.2 ML CORN OIL, 2/WK FOR 4 WK, Promoter: NONE USED
  tumour outcome (control, treated, inhibition, significance): 100%, 61%, 39%, p<0.05

## CCCCOC(=O)c1ccccc1C(=O)OCc1ccccc1
Carcinogen: 7,12-DIMETHYLBENZ[A]ANTHRACENE, 57-97-6, Dose [Inhibitor]: 0, 250 MG/KG IN CORN OIL 1/D FOR 7 D PRIOR TO CARCINOGEN DOSE (STUDY DURATION: 16 WK), Route [Inhibitor]: GAVAGE, Species: RAT, Strain/Sex: ?/FEMALE, Target Tissue: Type of Lesion: MAMMARY GLAND: TUMOR, Dose [Carcinogen]: 31 MG/KG IN CORN OIL ONCE, Promoter: NONE USED
  tumour outcome (control, treated, inhibition, significance): 82%, 52%, 37%, p<0.05
Carcinogen: 7,12-DIMETHYLBENZ[A]ANTHRACENE, 57-97-6, Dose [Inhibitor]: 0, 500 MG/KG IN CORN OIL 1/D FOR 7 D PRIOR TO CARCINOGEN DOSE (STUDY DURATION: 16 WK), Route [Inhibitor]: GAVAGE, Species: RAT, Strain/Sex: ?/FEMALE, Target Tissue: Type of Lesion: MAMMARY GLAND: TUMOR, Dose [Carcinogen]: 31 MG/KG IN CORN OIL ONCE, Promoter: NONE USED
  tumour outcome (control, treated, inhibition, significance): 82%, 52%, 37%, p<0.05
